Literature values in patent publication US11555040B2, “Oxepinopyrazole derivatives as inhibitors of P13-kinase activity” (GLAXOSMITHKLINE INTELLECTUAL PROPERTY DEVELOPMENT LIMITED, priority 2017, dated 2023).

Test system: amphetamine-induced psychosis
Settings: Law et al. 2012

In the case of `Cc1ccccc1-n1c(Cn2cnc3c(N)ncnc32)nc2cccc(C)c2c1=O` [IC87114], the “efficacy in mouse model of amphetamine-induced psychosis” value is given as “remarkable efficacy”.
